Experiments:
[1] = test system: PBMCs; assay: (3H)-thymidine proliferation assay; type: cell-based, human; details: for stimulation index: 10 μg/ml peptide
Experimental: FIG. 4. Cell-mediated response to peptide 5 in trial subject 016, measured over the course of the vaccination schedule. Patient PBMCs were stimulated with 10 μg/ml peptide 5, incubated in vitro for 6 days, pulsed with ^3H-thymidine for 18 hours and then proliferation was assessed by ^3H-thymidine incorporation.
Peripheral blood mononuclear cells (PBMCs) were plated at a concentration of 1×10^5 cells/well for thymidine proliferation and ELISpot assays and at 1×10^6 cells/well (24 well plates) for the CFSE proliferation assay. ELISpot plates were coated with mouse anti-human IFN-γ antibody (Diaclone, France) and cells for CFSE assay were stained with 5 μM CFSE-FITC (Molecular Probes, Eugene, Oreg.). All PBMCs were in RPMI supplemented with 2 mM L-glutamine, 10 mM HEPES, 100 U/mL penicillin/streptomycin and 10% human AB serum (Australian Red Cross Blood Service).
The recall antigens CMV lysate, (1/2000 dilution; BioWhittaker, Walkersville, Md.) and tetanus toxoid (2.5 Lfu/ml; CSL) were also tested. PBMCs were incubated at 37° C. and 5% CO2 atmosphere for 20 hours (ELISpot) or 6 days (proliferation assays).
In the thymidine proliferation assay, cells were pulsed with 0.5 μCi/well [methyl-^3H]-thymidine (Amersham, Buckinghamshire, UK) and harvested 18 hours later. [^3H]-thymidine incorporation was measured by liquid scintillation counting. A sample was considered to be positive when the stimulation index^22 for each well in the quadruplicate sample exceeded the mean of unstimulated cells by at least three standard deviations.

[2] = test system: serum antibodies; assay: Immunization of sheep with the vaccine, anti-peptide ELISA; details: for Polyclonal sera with reactivity to peptide obtained from immunized sheep: 200 μg peptide mixture in CpG DNA adjuvant, prime and boost
[3] = Delayed type hypersensitivity (DTH) testing; type: in vivo, human; details: for Induration area, DTH testing: 48 hours following intradermal injection of individual peptide, after four vaccinations; for Number of patients with a peptide-specific DTH response: six trial patients who underwent DTH testing
Experimental: Delayed type hypersensitivity (DTH) testing was carried out 1 month after the final vaccination. […] Induration of […]10 mm^2 at 48 hours after injection was considered positive.

[4] = test system: serum antibodies; assay: ELISA for serum antibodies specific for the individual vaccine peptides, human sera; details: for Number of individuals with a humoral response to the vaccine peptides, Normal controls n = 30 / Percent of individuals with a humoral response to the vaccine peptides, Normal controls n = 30: n = 30, not vaccinated
[5] = test system: PBMCs; assay: CFSE proliferation assay; type: cell-based, human; details: subject 016, visit 5
[6] = patient 016, visit 5 (1 month after vaccination 4)
[7] = non-trial cancer controls, n = 54, sera 1:25 dilution
[8] = trial subjects who completed four vaccinations, n = 6, detectable response at any time point considered positive

H-LEWMGIINPSGGSANYAPKFKGRLTMS-OH [Peptide 1]
stimulation index [1, 6]: 10.4 | Response to peptide using the polyclonal sheep sera or rabbit sera ([2]; polyclonal sheep sera (FIG. 2A) or rabbit sera (data not shown)): positive responses | Polyclonal sera with reactivity to peptide obtained from immunized sheep ([2]; two sheep): one animal did not respond | Induration area, DTH testing ([3]; patient 012): Neg (Neg indicates that induration (if any) was less than 10 mm^2) | Induration area, DTH testing ([3]; patient 014): Neg (Neg indicates that induration (if any) was less than 10 mm^2) | Induration area, DTH testing ([3]; patient 015): Neg (Neg indicates that induration (if any) was less than 10 mm^2) | Induration area, DTH testing ([3]; patient 016): 104 mm^2 | Induration area, DTH testing ([3]; patient 017): 24 mm^2 | Induration area, DTH testing ([3]; patient 018): Neg (Neg indicates that induration (if any) was less than 10 mm^2) | Number of patients with a peptide-specific DTH response [3]: two | Number of individuals with a humoral response to the vaccine peptides, Cancer controls n = 54 [4, 7]: 0 | Number of individuals with a humoral response to the vaccine peptides, Normal controls n = 30 [4]: 3 | Percent of individuals with a humoral response to the vaccine peptides, Normal controls n = 30 [4]: 10% | Number of individuals with a humoral response to the vaccine peptides, Trial subjects n = 6 [4, 8]: 0 | Number of individuals with a humoral response to the vaccine peptides, Trial subjects n = 6 ([4]; trial subjects who completed four vaccinations, n = 6, detectable response at any time point considered positive, listed as peptide 1): No patient demonstrated a response

H-LEWVGFIRSKAYGAATAYAASMKGRVTI-OH [Peptide 5]
stimulation index ([1]; patient 016, visit 3 (1 month after vaccination 2)): 8.88 | stimulation index ([1]; patient 016, visit 4 (1 month after vaccination 3)): 64.6 | stimulation index [1, 6]: 22.2 | First appearance of peptide-specific proliferative response ([1]; patient 016, maximal after three vaccinations): visit 3 | Serum antibody titres, first versus second immunized sheep ([2]; two sheep): equivalent | Polyclonal sera with reactivity to peptide obtained from immunized sheep ([2]; two sheep): obtained from both sheep | Induration area, DTH testing ([3]; patient 012): 165 mm^2 | Induration area, DTH testing ([3]; patient 014): 16 mm^2 | Induration area, DTH testing ([3]; patient 015): 24 mm^2 | Induration area, DTH testing ([3]; patient 016): 269 mm^2 | Induration area, DTH testing ([3]; patient 017): 373 mm^2 | Induration area, DTH testing ([3]; patient 018): 94 mm^2 | Number of patients with a peptide-specific DTH response [3]: all six | Specific proliferative response, % of circulating CD3 and CD4 positive cells [5]: 5.5% | Number of individuals with a humoral response to the vaccine peptides, Cancer controls n = 54 [4, 7]: 3 | Percent of individuals with a humoral response to the vaccine peptides, Cancer controls n = 54 [4, 7]: 5.6% | Number of individuals with a humoral response to the vaccine peptides, Normal controls n = 30 [4]: 2 | Percent of individuals with a humoral response to the vaccine peptides, Normal controls n = 30 [4]: 6.7% | Isotype of peptide-specific serum antibodies ([4]; subject 015): IgG3 | Isotype of peptide-specific serum antibodies ([4]; subject 016): IgG3 | Number of individuals with a humoral response to the vaccine peptides, Trial subjects n = 6 [4, 8]: 2 | Percent of individuals with a humoral response to the vaccine peptides, Trial subjects n = 6 [4, 8]: 33.3% | Number of individuals with a humoral response to the vaccine peptides, Trial subjects n = 6 ([4]; trial subjects who completed four vaccinations, n = 6, detectable response at any time point considered positive, listed as peptide 5): two
